These results are taken from US4880014A, “Method for determining therapeutic drug dosage using bioelectrical resistance and reactance measurements” (priority 1988, dated 1989).

Several values for one entry are separate records, joined by “and”; a condition that tells them apart may be missing. Identical values can stand only once.

Data set [1] in a line: Theophylline Cl, K and V predicted by bioelectrical impedance (multiple regression), and dose calculated from predicted Cl. More on the design: species or system human. Particulars: two-sided t-test. The source says:
An excitation current of 800 microamps and frequency of 50 kHz was then applied and (R) and (Xc) values obtained.
The independent variables set forth in Table VII were used in a stepwise multiple linear regression program to produce the models of best definition for (Cl), (K) and (V) by entering each patients individual variables (Cl), (V) and (K) into the program. It then fits a linear least-squares regression model to the entire set of independent variables to identify the best independent variables and their coefficients for the description of the […] dependent variables (Cl), (K) and (V). Insignificant variables were dropped from the model. The equations generated are those set forth previously as Equation 3, Equation 4 and Equation 5.
Other internationally recognized programs could also be used and may include BMDP (Biomedical Data Processing) and SPSS (Statistical Programming for the Social Sciences).
In Table VIII, clearance (Cl), elimination rate constant (K), and volume of distribution (V), determined for theophylline using a multiple regression analysis produced F variable sequence defined in Tables VII and IX are shown in columns B, D, and F, respectively. Table VII is the model sequence used to solve for (Cl), (K) and (V) as derived by stepwise regression analysis. […]

Data set [2] can be described thus: Theophylline pharmacokinetics in fifteen normal adult males from serum concentrations (Lagran), and dose calculated from measured Cl. Format: in vivo, human. The source says:
Fifteen normal adult males were used in the following study. Each subject was given a single intravenous dosage of theophylline.
Serial blood samples were obtained, for all fifteen patients, from an intravenous catheter placed in the arm.
F=1.0, assuming 100% oral absorption

The conditions of data set [3]: human, in vivo, iv. The method, then: Twelve human subjects participated in the following study. The resistance (R) and the reactance (Xc) of each patient was measured using a four-terminal impedance plethysmograph. During the measurement, the subjects were placed in the supine position on an insulative surface. The electrodes were attached in the following manner. Those areas of the patient's skin where the electrodes were to be connected were cleaned thoroughly with alcohol. […]
The elimination rate constant was determined by nonlinear regression analysis of the serum concentration data for each patient using Micrononlin (Micrononlin, Elite Software, box 11223. Pittsburgh. PA 15238).
Volume of distribution was calculated by the Sawchuk-Zaske method.
(§1) Calculation of (K) and (V) from the measured serum concentration data was performed as were the dosage regimens using the measured serum concentration data by the equations of Sawchuk and Zaske which will be known to those skilled in the art.

Data set [4] is described as follows: Gentamicin K and V predicted by bioelectrical impedance (multiple regression), and dosage regimen calculated from predicted K, V. Particulars: two-sided T-test. More on the design: species or system human. As for the experimental part:
Twelve human subjects participated in the following study. The resistance (R) and the reactance (Xc) of each patient was measured using a four-terminal impedance plethysmograph. During the measurement, the subjects were placed in the supine position on an insulative surface. The electrodes were attached in the following manner. Those areas of the patient's skin where the electrodes were to be connected were cleaned thoroughly with alcohol. The four pre-gelled electrodes were then attached to the patient such that one current electrode was attached to the dorsal surface of the patient's right hand at the distal metacarpals, one current electrode was attached to the patient's right foot at the location of the distal metatarsals, one detector electrode was connected to the patients right wrist at the right pisiform prominence, and one detector electrode was connected to the patient's right ankle between the medial and lateral malleoli. An excitation current of 800 microamps and frequency of 50 kHz was then applied and R and Xc values obtained. […]
as §1

Data set [5] can be described thus: Simulation of gentamicin peak and trough serum concentrations for an average 70 kg patient. On the set-up: species or system human. The method, then: Serum concentrations were then simulated for an average 70 kg patient given a one-hour infusion of the dose to achieve a postdose serum concentration of 6.0 mcg/ml and a predose serum concentration of 1.0 mcg/ml. This simulation was performed with the values of (K) and (V) determined by measured serum concentrations and the calculated dosage regimen from these measured (K) and (V) values, is recorded, respectively, in columns A and B of Table VI. A simulation was also performed with the dosage regimen determined by the bioelectrical impedance analysis of the present invention, using the patient's actual measured (K) and (V), to test the prediction error of the method of dosing of the present invention. Equations A and B which were discussed earlier were used for calculating dosing interval and dose. The latter is recorded respectively in columns C and D of Table VI.

For orientation: clearance means the rate of elimination divided by the concentration.

Take `Cn1c(=O)c2[nH]cnc2n(C)c1=O` [theophylline]: the “Comparison of K, V, Cl and dosage regimens, bioelectrical impedance vs measured serum concentrations” value in data set [1] is listed as “no statistically significant differences”. Also, the clearance in data set [2] (human, serum, iv, 4 mg/kg, mean of fifteen subjects, column A, read-out: Clearance (Cl), Meas., MEAN (converted)) is 52.3 mL/min. The k el in data set [2] (human, serum, iv, 4 mg/kg, mean of fifteen subjects, column C, read-out: Elimination Rate Constant (K), Meas., MEAN (converted)) was 2.36e-05 s⁻¹. The Vd in data set [2] (human, serum, iv, 4 mg/kg, mean of fifteen subjects, column E, read-out: Volume of Distribution (V), Meas., MEAN) is 39.4 L. Besides, the “Elimination Rate Constant (K), Meas.” value in data set [2] (individual patients (Pt. 1-15), single intravenous 4 mg/kg, 30 minute infusion, column C) was “.0885 h and .0631 h and .0591 h and .0521 h and .0813 h and .0895 h and .1241 h and .0305 h and .1895 h and .0815 h and .0938 h and .0921 h and .0713 h and .0774 h”.

Turning to gentamicin, in data set [3], the “Elimination Rate Constant (K), Meas., mean” value is on record as “.270 hr -1” and the “Serum concentrations for all twelve patients” value was in the range of 2000 to 10000 ng/mL. The “Comparison of K, V and dosage regimens, bioelectrical impedance vs measured serum concentration” value in data set [4] was “no statistically significant differences”. Besides, the “Comparison of postdose or predose concentrations simulated from measured K, V vs bioelectrical impedance K, V” value in data set [5] is “no statistically significant differences”.
